Data published in patent US12115166B2, “Corticotropin releasing factor receptor antagonists” (Spruce Biosciences, Inc., priority 2017, dated 2024).

What was measured:
[1] = Study 1: single-escalating oral dose pharmacokinetics in healthy adult subjects (fed, and 150 mg fasted); assay type: in vivo, human; conditions: 50 to 800 mg, fed state; formal test inconclusive
Experimental: Study 1 was the first-in-human study that investigated the safety, tolerability, and PK of single-escalating doses of Compound 1, given orally, to healthy adult subjects. […] The data from this study were used for the selection of doses for Study 2.
In Study 1, Compound 1 was administered to healthy adult subjects as a single PO dose of 2, 10, 50, 150, 400, or 800 mg in the fed state and 150 mg in the fasted state. Absorption occurred moderately late, achieving peak Cmax between 4 to 6 hours following dosing in the fed state.
When Compound 1 was given in the fed state, median time to reach maximum plasma concentration (Tmax) occurred between 4 and 6 hours.
As part of this single-dose escalation study, a food effect PK investigation was performed to examine Compound 1 exposures in both the fed and fasted states at the 150-mg dose level. A total of 6 subjects were administered 150 mg Compound 1 in each of these 2 dosing groups. Of these 6 subjects, 4 subjects received Compound 1 at the same dose in both fed and fasted states. […] Table 6 provides a summary of the PK parameters at the 150-mg dose level under both fed and fasted state conditions.
PK parameters AUC0-∞ and Cmax were analyzed separately for dose proportionality for Compound 1 from 50 to 800 mg when administered in the fed state. […]

[2] = molecular target: T1, CRF1 receptor (Homo sapiens, UniProt P34998); experiment: Phase 2 study in adults with classic CAH: hormone response (ACTH, 17-OHP, androstenedione); assay type: in vivo; conditions: CAH patients
T1 construct: from tissue; host or cells: living human patients
T1 sequence (P34998 24-415): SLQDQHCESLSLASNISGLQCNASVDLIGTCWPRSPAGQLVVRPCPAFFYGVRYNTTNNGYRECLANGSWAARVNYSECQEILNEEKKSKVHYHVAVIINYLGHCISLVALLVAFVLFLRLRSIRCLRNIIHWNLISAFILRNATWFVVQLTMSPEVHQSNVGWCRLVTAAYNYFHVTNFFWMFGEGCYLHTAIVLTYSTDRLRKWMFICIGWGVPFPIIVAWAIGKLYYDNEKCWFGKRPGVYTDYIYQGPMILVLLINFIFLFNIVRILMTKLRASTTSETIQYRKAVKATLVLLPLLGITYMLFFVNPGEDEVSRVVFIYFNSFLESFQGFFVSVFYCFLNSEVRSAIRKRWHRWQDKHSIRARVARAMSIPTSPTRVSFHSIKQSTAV
Text: Cohort A of the Phase 2 Study includes a 6-week, multiple-dose, dose escalation study of Compound 1 for the treatment of adults with classic CAH. After screening, eligible patients will be enrolled into a 6-week treatment period followed by a 4-week washout/safety follow-up period.
This cohort will be conducted in approximately 9 patients, who will receive Compound 1 daily for up to 6 weeks. Compound 1 will be administered as an oral daily dose. Patients will undergo titration of Compound 1 through three escalating dosage strengths at 2-week intervals. […]
Patients in Cohort B will receive study drug at 200 mg BID, with a dose in the morning and a dose in the evening, either with a meal or consumption of a standardized snack. For Cohorts C and D, the dose level and the frequency and timing of dosing will be determined based on interim data from the previous cohorts. […]
Outcome Measures Primary Outcome Measure: • 1. […] To assess the efficacy of Compound 1 in subjects with classic CAH as measured by percent and absolute change in 17-OHP compared to baseline. […] To explore the dose(s) of Compound 1 that cause pharmacodynamics changes in plasma concentrations of ACTH, androstenedione, and testosterone, as measured by the absolute and percent change from baseline by dose. • 4. […]

dose proportionality of Cmax [1]: more than dose proportional | morning rise in A4 [2]: attenuates
SMILES: CCC(CC)c1cc(C)nc2c(-c3sc(N4CCOCC4)nc3Cl)c(C)nn12 [Compound 1, 3-(4-Chloro-2-(morpholin-4-yl)thiazol-5-yl)-7-(1-ethylpropyl)-2,5-dimethylpyrazolo(1,5-a)pyrimidine]
